Assay results published in US12275745B2, “Therapeutic compounds and methods of use” (Genentech, Inc., priority 2021, dated 2025).

Tests used:
TEAD4 = TEAD4 (Homo sapiens, UniProt Q15561); assay: TR-FRET (Lipid HTRF) TEAD lipid pocket probe displacement assay, TEAD4; assay type: binding; conditions: His-tagged TEAD4, biotinylated lipid pocket probe, 4 hours
Protocol: (§1) His-tagged TEAD proteins are pre-incubated with TEAD project compounds for 30 minutes or 4 hours at room temperature. Biotinylated lipid pocket probes are then added to the TEAD/Compound mixture and incubated for 60 minutes at room temperature. The lipid pocket probe competes with the test compound for the TEAD lipid pocket until equilibrium is reached. After 60 minutes, Europium labelled anti-His (Perkin Elmer #AD0110) and XL665 labelled streptavidin (CIS Bio 610SAXAC) are added to the TEAD/test compound/lipid pocket mixture and incubated for 30 minutes or 4 hours. TR-FRET values are then measured using an EnVision multi-label plate reader (Perkin Elmer Cat #2104-001 0A.) If the lipid pocket probe binds to TEAD as expected, a TR-FRET signal results from the proximity of anti-His Eu and XL665. If a TEAD lipid pocket binder such as binds and displaces the lipid pocket probe, the disruption of the TEAD:probe interaction results in a decrease in TR-FRET signal. The potency of compounds as TEAD lipid pocket binders is determined by IC50 value generated using a non-linear 4 parameter curve fit.

TEAD3 = TEAD3 (Homo sapiens, UniProt Q99594); assay: TR-FRET (Lipid HTRF) TEAD lipid pocket probe displacement assay, TEAD3; assay type: binding; conditions: His-tagged TEAD3, biotinylated lipid pocket probe, 4 hours
TEAD1 = TEAD1 (Homo sapiens, UniProt P28347); assay: TR-FRET (Lipid HTRF) TEAD lipid pocket probe displacement assay, TEAD1; assay type: binding; conditions: His-tagged TEAD1, biotinylated lipid pocket probe, 4 hours
Protocol: as §1

TEAD2 = TEAD2 (Homo sapiens, UniProt Q15562); assay: biochemical;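 note: TR-FRET competition assay with His-tagged TEAD protein and a biotinylated lipid pocket probe, where probe displacement by compound lowers the signal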
TEAD2, sequence (Q15562 whole entry, species assumed): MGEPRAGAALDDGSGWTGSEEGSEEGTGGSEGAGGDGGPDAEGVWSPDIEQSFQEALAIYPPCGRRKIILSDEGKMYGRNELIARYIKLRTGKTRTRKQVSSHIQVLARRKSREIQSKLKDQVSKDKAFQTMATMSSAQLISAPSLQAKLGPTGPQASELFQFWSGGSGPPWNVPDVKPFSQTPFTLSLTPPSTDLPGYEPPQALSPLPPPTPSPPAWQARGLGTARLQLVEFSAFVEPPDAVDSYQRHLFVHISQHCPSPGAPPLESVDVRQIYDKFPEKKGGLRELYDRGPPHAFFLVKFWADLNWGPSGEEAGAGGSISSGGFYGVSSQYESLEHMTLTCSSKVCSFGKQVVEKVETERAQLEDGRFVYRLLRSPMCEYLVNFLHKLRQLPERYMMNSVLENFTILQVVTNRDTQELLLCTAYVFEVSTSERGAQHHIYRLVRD
Protocol: as §1

TEAD1, sequence (P28347 whole entry, species assumed): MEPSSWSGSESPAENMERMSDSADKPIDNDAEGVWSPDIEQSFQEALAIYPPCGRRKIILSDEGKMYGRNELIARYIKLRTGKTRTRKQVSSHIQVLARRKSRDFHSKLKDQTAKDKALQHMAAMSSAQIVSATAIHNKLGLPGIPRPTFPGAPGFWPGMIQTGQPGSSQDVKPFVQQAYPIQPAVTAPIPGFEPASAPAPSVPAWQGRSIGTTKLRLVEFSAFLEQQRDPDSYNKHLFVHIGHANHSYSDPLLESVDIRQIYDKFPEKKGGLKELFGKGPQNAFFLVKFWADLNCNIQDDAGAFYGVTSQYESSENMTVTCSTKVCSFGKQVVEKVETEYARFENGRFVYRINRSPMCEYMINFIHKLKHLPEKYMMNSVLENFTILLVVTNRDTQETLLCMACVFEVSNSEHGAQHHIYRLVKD
TEAD3, sequence (Q99594 whole entry, species assumed): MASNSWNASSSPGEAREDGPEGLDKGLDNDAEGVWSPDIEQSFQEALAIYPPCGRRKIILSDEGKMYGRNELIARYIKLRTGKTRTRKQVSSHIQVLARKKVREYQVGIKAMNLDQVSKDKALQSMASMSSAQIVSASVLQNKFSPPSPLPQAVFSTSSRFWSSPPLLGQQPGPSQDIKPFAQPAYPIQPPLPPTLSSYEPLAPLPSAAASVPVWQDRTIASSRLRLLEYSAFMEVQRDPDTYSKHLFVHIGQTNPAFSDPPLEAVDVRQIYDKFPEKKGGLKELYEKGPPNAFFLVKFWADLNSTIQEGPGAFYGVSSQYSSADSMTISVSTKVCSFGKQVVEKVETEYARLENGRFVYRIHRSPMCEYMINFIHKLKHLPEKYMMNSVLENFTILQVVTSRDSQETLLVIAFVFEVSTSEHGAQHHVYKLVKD
TEAD4, sequence (Q15561 whole entry, species assumed): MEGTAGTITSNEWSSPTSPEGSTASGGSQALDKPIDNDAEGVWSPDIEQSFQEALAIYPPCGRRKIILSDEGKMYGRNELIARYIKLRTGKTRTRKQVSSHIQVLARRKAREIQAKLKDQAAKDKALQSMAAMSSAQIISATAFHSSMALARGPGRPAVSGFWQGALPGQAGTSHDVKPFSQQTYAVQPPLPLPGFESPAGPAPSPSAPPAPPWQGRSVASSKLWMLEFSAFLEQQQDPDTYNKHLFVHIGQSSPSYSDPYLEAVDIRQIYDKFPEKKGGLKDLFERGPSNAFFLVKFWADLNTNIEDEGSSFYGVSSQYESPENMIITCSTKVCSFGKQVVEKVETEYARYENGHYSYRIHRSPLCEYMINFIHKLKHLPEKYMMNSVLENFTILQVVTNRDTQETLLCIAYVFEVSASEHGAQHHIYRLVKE

Row | IC50 (TEAD4) [nM] | IC50 (TEAD3) [nM] | IC50 (TEAD1) [nM] | IC50 (TEAD2) [nM] | SMILES
1 | 5700 |  |  |  | C=CC(=O)N[C@H](C)c1cc(-c2ccc(OC(F)(F)F)cc2)c2c(c1CO)CCO2 (single isomer, unassigned) [Compound 17]
2 | 800 |  |  |  | C=CC(=O)N[C@@H](C)c1cc(-c2ccc(OC(F)(F)F)cc2)c2c(c1CO)CCO2 (single isomer, unassigned) [Compound 18]
3 | 53 |  |  |  | C=CC(=O)NCc1cc(-c2ccc(OC(F)(F)F)cc2)c2ncn(C)c2c1[C@H](O)CO (single isomer, unassigned) [Compound 30]
4 | 55 |  |  |  | C=CC(=O)NCc1cc(-c2ccc(OC(F)(F)F)cc2)c2ncn(C)c2c1[C@@H](O)CO (single isomer, unassigned) [Compound 31]
5 | 79 | 260 | 140 | 7.8 | C=CC(=O)NCc1cc(-c2ccc(OC(F)(F)F)cc2)c2ncn(C)c2c1[C@H](C)O (single isomer, unassigned) [Compound 33]
6 | 380 | 1200 | 48 | 18 | C=CC(=O)NCc1cc(-c2ccc(OC(F)(F)F)cc2)c2cccnc2c1[C@H](O)CO (single isomer, unassigned) [Compound 45]
7 | 125 | 79 | 22 | 6.15 | C=CC(=O)NCc1cc(-c2ccc(OC(F)(F)F)cc2)c2cccnc2c1[C@@H](O)CO (single isomer, unassigned) [Compound 46]
8 | 135 | 175 | 22 | 11.5 | C=CC(=O)NCc1cc(-c2ccc(OC(F)(F)F)cc2)c2ncccc2c1[C@H](O)CO (single isomer, unassigned) [Compound 47]
9 | 145 | 1040 | 22 | 14.5 | C=CC(=O)NCc1cc(-c2ccc(OC(F)(F)F)cc2)c2ncccc2c1[C@@H](O)CO (single isomer, unassigned) [Compound 48]
10 | 20 | 110 | 19 | 12 | C=CC(=O)N(C)Cc1cc(-c2ccc(OC(F)(F)F)cc2)c2ncccc2c1[C@H](O)CO (single isomer, unassigned) [Compound 51]
11 | 43 | 79 | 25 | 46 | C=CC(=O)N(C)Cc1cc(-c2ccc(OC(F)(F)F)cc2)c2ncccc2c1[C@@H](O)CO (single isomer, unassigned) [Compound 52]
12 | 260 |  |  |  | C=CC(=O)NCc1nc(-c2ccc(OC(F)(F)F)cc2)c2ncn(C)c2c1[C@H](O)CO (single isomer, unassigned) [Compound 70]
13 | 120 |  |  |  | C=CC(=O)NCc1nc(-c2ccc(OC(F)(F)F)cc2)c2ncn(C)c2c1[C@@H](O)CO (single isomer, unassigned) [Compound 71]
14 |  | 1900 |  | 40 | C=CC(=O)NCc1cc(-c2ccc(OC(F)(F)F)cc2)c2nccnc2c1[C@H](O)CO (single isomer, unassigned) [Compound 79]
15 | 290 |  | 160 | 70 | C=CC(=O)NCc1cc(-c2ccc(OC(F)(F)F)cc2)c2ncoc2c1[C@H]1CNC(=O)O1 (single isomer, unassigned) [Compound 111]
16 | 520 |  | 2400 | 360 | C=CC(=O)NCc1cc(-c2ccc(OC(F)(F)F)cc2)c2ncoc2c1[C@@H]1CNC(=O)O1 (single isomer, unassigned) [Compound 112]
17 |  | 580 | 93 | 66 | C=CC(=O)N1CC[C@@H](c2nc(-c3ccc(OC(F)(F)F)cc3)c3ncn(C)c3n2)C1 (single isomer, unassigned) [Compound 122]
18 |  | 80 | 17 | 7.8 | C=CC(=O)N1CC[C@H](c2nc(-c3ccc(OC(F)(F)F)cc3)c3ncn(C)c3n2)C1 (single isomer, unassigned) [Compound 123]

Row | IC50 (TEAD4) [nM] | IC50 (TEAD3) [nM] | IC50 (TEAD1) [nM] | IC50 (TEAD2) [nM] | SMILES
19 | 15.2 |  |  | 18.3 | C=CC(=O)NCc1cc(-c2ccc(OC(F)(F)F)cc2)c2c(c1CO)CCO2 [Compound 12, N-((4-(Hydroxymethyl)-7-(4-(trifluoromethoxy)phenyl)-2,3-dihydrobenzofuran-5-yl)methyl)acrylamide]
20 | 5 | 70 |  | 300 | O=C(CCl)NCc1nc(-c2ccc(OC(F)(F)F)cc2)c2ncsc2n1 [Compound 15, 2-chloro-N-[[7-[4-(trifluoromethoxy)phenyl]thiazolo[5,4-d]pyrimidin-5-yl]methyl]acetamide]
21 |  | 8 | 4 |  | C=CS(=O)(=O)NCc1cc(-c2ccc(OC(F)(F)F)cc2)c2c(c1CO)CCO2 [Compound 19, N-((4-(Hydroxymethyl)-7-(4-(trifluoromethoxy)phenyl)-2,3-dihydrobenzofuran-5-yl)methyl)ethenesulfonamide]
22 | 17.5 |  |  | 23.5 | [2H]C([2H])=C([2H])C(=O)NCc1cc(-c2ccc(OC(F)(F)F)cc2)c2c(c1CO)CCO2 [Compound 20, 2,3,3-Trideuterio-N-((4-(hydroxymethyl)-7-(4-(trifluoromethoxy)phenyl)-2,3-dihydrobenzofuran-5-yl)methyl]prop-2-enamide]
23 | 11.9 | 72.7 |  | 190 | C=CC(=O)NCc1nc(-c2ccc(OC(F)(F)F)cc2)c2ncsc2n1 [Compound 21, N-[[7-[4-(trifluoromethoxy)phenyl]thiazolo[5,4-d]pyrimidin-5-yl]methyl]prop-2-enamide]
24 | 3.7 |  | 4.4 | 3.9 | O=C(CCl)NCc1cc(-c2ccc(OC(F)(F)F)cc2)c2c(c1CO)CCO2 [Compound 25, 2-Chloro-N-((4-(hydroxymethyl)-7-(4-(trifluoromethoxy)phenyl)-2,3-dihydrobenzofuran-5-yl)methyl)acetamide]
25 | 6.7 | 40.5 |  | 15 | C=CC(=O)NCc1cc(-c2ccc(OC(F)(F)F)cc2)c2ncn(C)c2c1C#N [Compound 27, N-[[4-cyano-3-methyl-7-[4-(trifluoromethoxy)phenyl]benzimidazol-5-yl]methyl]prop-2-enamide]
26 |  | 390 |  | 15.3 | C=CC(=O)NCc1cc(-c2ccc(OC(F)(F)F)cc2)c2nccnc2c1[C@@H](O)CO [Compound 28, N-[[5-[(1R)-1,2-dihydroxyethyl]-8-[4-(trifluoromethoxy)phenyl]quinoxalin-6-yl]methyl]prop-2-enamide]
27 | 2 |  |  | 3.1 | C=CC(=O)N1CC(c2nc(-c3ccc(OC(F)(F)F)cc3)c3ncn(C)c3n2)C1 [Compound 62, 1-[3-[9-methyl-6-[4-(trifluoromethoxy)phenyl]purin-2-yl]azetidin-1-yl]prop-2-en-1-one]
28 |  | 340 | 16 | 17 | C=CC(=O)NCc1cc(-c2ccc(OC(F)(F)F)cc2)c2ncn(C)c2c1C#C[C@H](O)CO [Compound 74, (S)—N-((7-(3,4-dihydroxybut-1-yn-1-yl)-1-methyl-4-(4-(trifluoromethoxy)phenyl)-1H-benzo[d]imidazol-6-yl)methyl)acrylamide]
29 |  | 160 | 9 | 13 | C=CC(=O)NCc1cc(-c2ccc(OC(F)(F)F)cc2)c2ncn(C)c2c1C#C[C@@H](O)CO [Compound 75, (R)-N-((7-(3,4-dihydroxybut-1-yn-1-yl)-1-methyl-4-(4-(trifluoromethoxy)phenyl)-1H-benzo[d]imidazol-6-yl)methyl)acrylamide]
30 | 260 | 1300 |  | 230 | C=CC(=O)NCc1cc(-c2ccc(OC(F)(F)F)cc2)c2ncn(C)c2c1C(N)=O [Compound 76, 3-methyl-5-[(prop-2-enoylamino)methyl]-7-[4-(trifluoromethoxy)phenyl]benzimidazole-4-carboxamide]
31 | 15.1 | 216 |  | 275 | [2H]C([2H])=C([2H])C(=O)NCc1nc(-c2ccc(OC(F)(F)F)cc2)c2ncsc2n1 [Compound 101, N-((7-(4-(Trifluoromethoxy)phenyl)thiazolo[5,4-d]pyrimidin-5-yl)methyl)acrylamide-2,3,3-d3]
32 | 2.25 | 9 |  | 4.85 | Cn1cnc2c(-c3ccc(OC(F)(F)F)cc3)nc(C3CN(C(=O)C4=CCC4)C3)nc21 [Compound 115, Cyclobut-1-en-1-yl(3-(9-methyl-6-(4-(trifluoromethoxy)phenyl)-9H-purin-2-yl)azetidin-1-yl)methanone]
33 |  |  | 5.3 | 8.7 | C/C=C/S(=O)(=O)N1CC(c2nc(-c3ccc(OC(F)(F)F)cc3)c3ncn(C)c3n2)C1 [Compound 116, (E)-9-Methyl-2-(1-(prop-1-en-1-ylsulfonyl)azetidin-3-yl)-6-(4-(trifluoromethoxy)phenyl)-9H-purine]
34 | 6.7 |  | 9.5 | 72 | C=C(F)C(=O)N1CC(c2nc(-c3ccc(OC(F)(F)F)cc3)c3ncn(C)c3n2)C1 [Compound 118, 2-Fluoro-1-(3-(9-methyl-6-(4-(trifluoromethoxy)phenyl)-9H-purin-2-yl)azetidin-1-yl)prop-2-en-1-one]
35 | 160 |  |  | 1300 | Cn1cnc2c(-c3ccc(OC(F)(F)F)cc3)nc(C3CN(C(=O)C45CC4C5)C3)nc21 (stereo not shown) [Compound 119, Bicyclo[1.1.0]butan-1-yl(3-(9-methyl-6-(4-(trifluoromethoxy)phenyl)-9H-purin-2-yl)azetidin-1-yl)methanone]
36 | 220 |  |  | 840 | C/C=C(\C)C(=O)N1CC(c2nc(-c3ccc(OC(F)(F)F)cc3)c3ncn(C)c3n2)C1 [Compound 120, (E)-2-Methyl-1-(3-(9-methyl-6-(4-(trifluoromethoxy)phenyl)-9H-purin-2-yl)azetidin-1-yl)but-2-en-1-one]
